One assay relates to cardiovascular system. The note with it: in vivo; cited from earlier work.
Assay [1] concerns activated human mesangial cells. As to the kind of experiment: in vitro inhibition of activated (IL-1 and IL-6) human mesangial cells, [3H]-thymidine incorporation. The note with it: Mesangial cell, n = 3, read-out: in vitro inhibitory action. It is filed as cell-based. The source says:
In terms of activation of mesangial cells, [^3 H]-thymidine incorporation method is used as an index of DNA synthesis. Cultured human mesangial cells are first activated by exposing them to IL-1 and IL-6. The decrease in [^3 H]-thymidine incorporation after exposure to various fractions and compounds in Cordyceps sinensis was used as the in vitro screening method for identifying potential substances which are capable of inhibiting the proliferation of activated human mesangial cells.
Two methods of investigation (in vitro and in vivo) were adopted for the invention discussed in the patent application. One of these utilizes in vitro suppression of activated human mesangial cells as its model: the activity index used is the degree to which activation by interleukins 1 and 6 is suppressed by treatment with the fractions and purified compound H1-A of Cordyceps sinensis. Isotope-labeled [^3 H]-thymidine converted into [^3 H]-thymidine incorporation is the basis by which the degree of activation of mesangial cells is determined (please see Tables 1-1 to 1-5).
In general terms: Incorporation of labelled thymidine or its analogues reports DNA synthesis.

`Nc1ncnc2c1ncn2[C@@H]1O[C@H](CO)[C@@H](O)[C@H]1O` [Adenosine]: the cardiovascular effect result in the assay with cardiovascular system is “acts to relax vascular smooth muscle and causes vasodilatation”.
Turning to `CC[C@H](C)C(=O)O[C@H]1C[C@@H](C)C=C2C=C[C@H](C)[C@H](CC[C@@H]3C[C@@H](O)CC(=O)O3)[C@H]21` [Lovastatin, lovastatin], in assay [1] (Table 1-5, 20 μM), the inhibition at 20 µM stood at 19.8 ± 2%. For the same compound, the inhibition at 50 µM in assay [1] (Table 1-5, 50 μM) turned out to be 37.1 ± 4.3%. Further, the inhibition at 75 µM in assay [1] (Table 1-5, 75 μM) was determined as 60.9 ± 3.8%. Moreover, the inhibition at 100 µM in assay [1] (Table 1-5, 100 μM) was found to be 73 ± 4%.

Source of the values: US5582828A, “Active fractions of Cordyceps sinensis and method of isolation thereof” (Lin; Ching-Yuang, priority 1995, dated 1996).
